This is an account of results in patent US9045466B2, “Amidine compound or salt thereof” (priority 2011, dated 2015).

What all share (assay): Fungal susceptibility test, broth microdilution method (MIC)
Format in all cases: cell-based
A general note: Dilution methods test growth across graded concentrations, often in twofold steps.

For experiment [1], the system named is Aspergillus fumigatus TIMM 0063. To be noted: TIMM0063, 48 h. The method, then: (§1) The fungal susceptibility tests on test substances were conducted by the broth microdilution method equivalent to Clinical and Laboratory Standards Institute method. The medium used in the susceptibility tests was RPMI1640 adjusted to pH 7.0 with 0.165 mol/L morpholinepropanesulfonic acid (MOPS) and 50% sodium hydroxide (RPMI/MOPS). Each test substance was dissolved in DMSO and serially diluted in 2-fold increments with DMSO on a 96-well microplate. Then, the dilutions were dispensed by 1 μL to a 96-well microplate. Candida albicans TIMM 1623 cultured overnight at 35° C. in Sabouraud's agar medium was suspended in sterile saline. The number of cells was counted under a biological microscope, and the fungal suspension was diluted with RPMI/MOPS to prepare the inoculum solution (approximately 1×10^3 cells/mL). Alternatively, Candida albicans TIMM 1623 stored at −80° C. was diluted with RPMI/MOPS to prepare the inoculum solution (approximately 1×10^3 CFU/mL). Aspergillus fumigatus TIMM 0063 stored at 5° C. was diluted with RPMI/MOPS to prepare the inoculum solution (approximately 1×10^4 CFU/mL). Trichophyton rubrum NBRC 5467 stored at 5° C. or −80° C. was diluted with RPMI/MOPS to prepare the inoculum solution (approximately 2×10^3 CFU/mL). The 199 μL of inoculum solution was dispensed to each well to prepare the microplate containing the designated concentrations of test substance, medium and fungal cells. Candida albicans and Aspergillus fumigatus were cultured at 35° C. for 2 days. Trichophyton rubrum was cultured at 35° C. for 4 days. After the completion of culture, MIC was determined by visual observation. The MICs of Candida albicans and Aspergillus fumigatus were set to the lowest concentration at which approximately 50% growth inhibition was seen, when compared with a growth control without the addition of the test substance. The MIC of Trichophyton rubrum was set to the lowest concentration at which approximately 80% growth inhibition was seen, when compared with a growth control without the addition of the test substance.

Experiment [2] relates to Trichophyton rubrum NBRC 5467. The following applies: NBRC5467, 96 h. How it is done: as §1
In experiment [3] the test system is Candida albicans TIMM 1623. To be noted: TIMM1623, 48 h. The method, then: as §1
Where [4] appears, read: RPMI/MOPS pH 7.0, 35° C. for 2 days, visual, lowest concentration with approximately 50% growth inhibition, read-out: MIC (μg/mL) A. fumigatus TIMM 0063.
Setting [5] is: RPMI/MOPS pH 7.0, 35° C. for 4 days, visual, lowest concentration with approximately 80% growth inhibition, read-out: MIC (μg/mL) T. rubrum NBRC5467.
Where [6] appears, read: RPMI/MOPS pH 7.0, 35° C. for 2 days, visual, lowest concentration with approximately 50% growth inhibition, read-out: MIC (μg/mL) C. albicans TIMM1623.
The mark [7] stands for this setting: pH 7, read-out: MIC (μg/mL) C. albicans TIMM1623.
Setting [8] is: pH 7, read-out: MIC (μg/mL) T. rubrum NBRC5467.
The mark [9] stands for this setting: pH 7, read-out: MIC (μg/mL) A. fumigatus TIMM 0063.

Values after ≈ are worked out from the molar mass of the structure shown. Counter-ions that a name gives are not always drawn. Like-named read-outs stand apart in the source and are kept apart here.

Regarding `Cc1ccc(-c2csc(Cc3cc(C)c(/N=C/N4CCCC4)cc3C)n2)cc1` [Example 1, 2,5-Dimethyl-4-{[4-(4-methylphenyl)-1,3-thiazol-2-yl]methyl}-N-[(E)-pyrrolidin-1-ylmethylidene]aniline], the results for the MIC in experiment [1] (setting [4]) and in experiment [2] (setting [5]) were 0.0625 µg/mL (≈ 0.16 µM) and 0.0039 µg/mL (≈ 0.01 µM), respectively.

Turning to `CCN(C)/C=N/c1cc(C)c(Cc2nc(COc3ccc(C)cc3)cs2)cc1C` [Example 60, N′-[2,5-Dimethyl-4-({4-[(4-methylphenoxy)methyl]-1,3-thiazol-2-yl}methyl)phenyl]-N-ethyl-N-methylimidoformamide], the values for the MIC in experiment [3] (setting [6]) and in experiment [2] (setting [5]) were 0.0156 µg/mL (≈ 0.0383 µM) and 0.001 µg/mL (≈ 0.00245 µM), respectively.

Turning to `CCN(C)/C=N/c1cc(C)c(Cc2nc(-c3ccc(C(=O)OC)cc3)cs2)cc1C` [Example 14, Methyl 4-{2-[4-({(E)-[ethyl(methyl)amino]methylidene}amino)-2,5-dimethylbenzyl]-1,3-thiazol-4-yl}benzoate dihydrochloride], the MIC in experiment [3] (setting [7]) stood at 0.0625 µg/mL. On to `CCN(C)/C=N/c1cc(C)c(Cc2nc(-c3ccc(C(=O)NC(C)(C)C)cc3)cs2)cc1C` [Example 24, N-Tert-butyl-4-{2-[4-({(E)-[ethyl(methyl)amino]methylidene}amino)-2,5-dimethylbenzyl]-1,3-thiazol-4-yl}benzamide dihydrochloride], for which the MIC in experiment [3] (setting [7]) came to 0.0313 µg/mL; in experiment [2] (setting [8]), 0.0039 µg/mL. In the case of `CCN(C)/C=N/c1cc(C)c(Cc2nc(-c3cnc(C(C)(C)C(F)(F)F)cn3)cs2)cc1C` [Example 4, N′-[2,5-Dimethyl-4-({4-[5-(1,1,1-trifluoro-2-methylpropan-2-yl)pyrazin-2-yl]-1,3-thiazol-2-yl}methyl)phenyl]-N-ethyl-N-methylimidoformamide hydrochloride], the MIC in experiment [3] (setting [7]) turned out to be 0.0313 µg/mL; in experiment [2] (setting [8]), 0.002 µg/mL.

Turning to `CCN(C)/C=N/c1cc(C)c(Cc2nc(C(=O)c3ccc(Cl)cc3)cs2)cc1C` [Example 27, N′-[4-({4-[(4-Chlorophenyl)carbonyl]-1,3-thiazol-2-yl}methyl)-2,5-dimethylphenyl]-N-ethyl-N-methylimidoformamide hydrobromide], the MIC in experiment [1] (setting [4]) and in experiment [3] (setting [6]) was 0.0625 µg/mL in each case. `CCN(C)/C=N/c1cc(C)c(Cc2nc(C(C)(C)C)cs2)cc1C` [Example 29, N′-{4-[(4-Tert-butyl-1,3-thiazol-2-yl)methyl]-2,5-dimethylphenyl}-N-ethyl-N-methylimidoformamide dihydrochloride]: the figures for the MIC in experiment [3] (setting [7]) and in experiment [2] (setting [8]) were 0.0625 µg/mL and 0.0039 µg/mL, respectively.

`CCN(C)/C=N/c1cc(C)c(Cc2nc(C(=O)c3ccc(C(F)(F)F)cc3)cs2)cc1C` [Example 36, N′-{2,5-Dimethyl-4-[(4-{[4-(trifluoromethyl)phenyl]carbonyl}-1,3-thiazol-2-yl)methyl]phenyl}-N-ethyl-N-methylimidoformamide hydrobromide]: the MIC in experiment [3] (setting [6]) came out at 0.0313 µg/mL. Consider `CCN(C)/C=N/c1cc(C)c(Cc2nc(-c3cnc(OC)cn3)cs2)cc1C` [Example 26, N-Ethyl-N′-(4-{[4-(5-methoxypyrazin-2-yl)-1,3-thiazol-2-yl]methyl}-2,5-dimethylphenyl)-N-methylimidoformamide hydrobromide], for which the MIC in experiment [1] (setting [4]) and in experiment [3] (setting [6]) was 0.0625 µg/mL each time. `CCN(C)/C=N/c1cc(C)c(Cc2nc(-c3cc(F)c(C)cc3F)cs2)cc1C` [Example 58, N′-(4-{[4-(2,5-Difluoro-4-methylphenyl)-1,3-thiazol-2-yl]methyl}-2,5-dimethylphenyl)-N-ethyl-N-methylimidoformamide hydrobromide]: the MIC in experiment [1] (setting [4]) came out at 0.0625 µg/mL; in experiment [3] (setting [6]) it was 0.0156 µg/mL; in experiment [2] (setting [5]), 0.001 µg/mL. With `CCN(C)/C=N/c1cc(C)c(Cc2nc(-c3ccc(C)cc3)ns2)cc1C` [Example 16, N′-(2,5-Dimethyl-4-{[3-(4-methylphenyl)-1,2,4-thiadiazol-5-yl]methyl}phenyl)-N-ethyl-N-methylimidoformamide], the MIC in experiment [1] (setting [4]) turned out to be 0.0313 µg/mL (≈ 0.0827 µM); in experiment [3] (setting [6]) it was 0.0313 µg/mL (≈ 0.0827 µM); in experiment [2] (setting [5]), 0.002 µg/mL (≈ 0.00528 µM). With `CCN(C)/C=N/c1cc(C)c(Cc2nc(-c3ccc(C)cc3)cs2)cc1C` [Example 3, N′-(2,5-Dimethyl-4-{[4-(4-methylphenyl)-1,3-thiazol-2-yl]methyl}phenyl)-N-ethyl-N-methylimidoformamide dihydrochloride], the results for the MIC in experiment [1] (setting [9]), in experiment [3] (setting [7]) and in experiment [2] (setting [8]) were 0.0156 µg/mL, 0.0156 µg/mL and 0.0005 µg/mL, respectively. As to `CCN(C)/C=N/c1cc(C)c(Cc2nc(-c3ccc(Cl)cc3)cs2)cc1C` [Example 49, N′-(4-{[4-(4-Chlorophenyl)-1,3-thiazol-2-yl]methyl}-2,5-dimethylphenyl)-N-ethyl-N-methylimidoformamide hydrochloride], the figures for the MIC in experiment [1] (setting [9]) and in experiment [3] (setting [7]) were 0.0625 µg/mL and 0.0156 µg/mL, respectively. For the compound `CCN(C)/C=N/c1cc(C)c(Cc2nc(-c3ccc(C(=O)NCC(C)(C)C)cc3)cs2)cc1C` [Example 99, N-(2,2-Dimethylpropyl)-4-{2-[4-({(E)-[ethyl(methyl)amino]methylidene}amino)-2,5-dimethylbenzyl]-1,3-thiazol-4-yl}benzamide], the MIC in experiment [3] (setting [6]) was 0.0625 µg/mL (≈ 0.131 µM).

On to `CCN(C)/C=N/c1cc(C)c(Cc2nc(-c3ccc(C(=O)N(C)CC)cc3)cs2)cc1C` [Example 42, N-Ethyl-4-{2-[4-({(E)-[ethyl(methyl)amino]methylidene}amino)-2,5-dimethylbenzyl]-1,3-thiazol-4-yl}-N-methylbenzamide], for which the MIC in experiment [3] (setting [6]) amounted to 0.0625 µg/mL (≈ 0.139 µM). `CCN(C)/C=N/c1cc(C)c(Cc2nc(-c3ccc(C(C)(C)C)cc3)cs2)cc1C` [Example 17, N′-(4-{[4-(4-Tert-butylphenyl)-1,3-thiazol-2-yl]methyl}-2,5-dimethylphenyl)-N-ethyl-N-methylimidoformamide dihydrochloride]: the values for the MIC in experiment [3] (setting [7]) and in experiment [2] (setting [8]) were 0.0313 µg/mL and 0.002 µg/mL, respectively. For `CCN(C)/C=N/c1cc(C)c(Cc2nc(-c3ncc(C(C)(C)C)s3)cs2)cc1C` [Example 20, N′-{4-[(5-Tert-butyl-2,4′-bi-1,3-thiazol-2′-yl)methyl]-2,5-dimethylphenyl}-N-ethyl-N-methylimidoformamide dihydrochloride], the MIC in experiment [3] (setting [7]) amounted to 0.0313 µg/mL; in experiment [2] (setting [8]) it was 0.002 µg/mL.

Take `CCN(C)/C=N/c1cc(C)c(Cc2nc(CS(=O)(=O)c3ccc(C)cc3)cs2)cc1C` [Example 30, N′-{2,5-Dimethyl-4-[(4-{[(4-methylphenyl)sulfonyl]methyl}-1,3-thiazol-2-yl)methyl]phenyl}-N-ethyl-N-methylimidoformamide dihydrochloride]: the MIC in experiment [2] (setting [8]) is 0.0625 µg/mL.

As for `CCN(C)/C=N/c1cc(C)c(Cc2nc(C(=O)NC(C)(C)C(F)(F)F)cs2)cc1C` [Example 109, 2-[4-({(E)-[Ethyl(methyl)amino]methylidene}amino)-2,5-dimethylbenzyl]-N-(1,1,1-trifluoro-2-methylpropan-2-yl)-1,3-thiazole-4-carboxamide hydrochloride], in experiment [2] (setting [8]), the MIC came to 0.0039 µg/mL. As for `CCN(C)/C=N/c1cc(C)c(Cc2nc(-c3ccc(C(=O)N4CCC4)cc3)cs2)cc1C` [Example 101, N′-[4-({4-[4-(Azetidin-1-ylcarbonyl)phenyl]-1,3-thiazol-2-yl}methyl)-2,5-dimethylphenyl]-N-ethyl-N-methylimidoformamide], in experiment [2] (setting [5]), the MIC stood at 0.0625 µg/mL (≈ 0.14 µM).

Turning to `CCOC(=O)Nc1csc(Cc2cc(C)c(/N=C/N(C)CC)cc2C)n1` [Example 31, Ethyl {2-[4-({(E)-[ethyl(methyl)amino]methylidene}amino)-2,5-dimethylbenzyl]-1,3-thiazol-4-yl}carbamate dihydrochloride], the MIC in experiment [2] (setting [8]) came out at 0.0078 µg/mL. As for `CCN(C)/C=N/c1cc(C)c(Cc2nc(-c3cscn3)cs2)cc1C` [Example 48, N′-[4-(4,4′-Bi-1,3-thiazol-2-ylmethyl)-2,5-dimethylphenyl]-N-ethyl-N-methylimidoformamide hydrochloride], the MIC in experiment [3] (setting [7]) worked out at 0.0625 µg/mL; in experiment [2] (setting [8]), 0.0078 µg/mL. On to `COC(=O)CN(C)/C=N/c1cc(C)c(Cc2nc(-c3ccc(C)cc3)cs2)cc1C` [Example 7, Methyl N-{(E)-[(2,5-dimethyl-4-{[4-(4-methylphenyl)-1,3-thiazol-2-yl]methyl}phenyl)imino]methyl}-N-methylglycinate], for which the MIC in experiment [2] (setting [5]) is 0.25 µg/mL (≈ 0.593 µM).
